Measurements from patent publication US20140107109A1, “AMINO-DIHYDROTHIAZINE AND AMINO-DIOXIDO DIHYDROTHIAZINE COMPOUNDS AS BETA-SECRETASE ANTAGONISTS AND METHODS OF USE” (Amgen Inc., priority 2012, published 2014).

Legend:
[1] = test system: Aβ40 in conditioned medium of cells stably expressing Amyloid Precursor Protein (APP); experiment: In vitro BACE cell-based assay (HEK cell assay), Aβ40 sandwich ELISA; conditions: Homo sapiens, HEK293; Aβ40, 24 h incubation
In short: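 Aβ40 in conditioned medium was quantified by time-resolved fluorescence sandwich ELISA (pAb40 capture 3 h at 4 °C, biotin-6E10 detection 2 h at 4 °C) after 24 h compound exposure of APP-expressing cells. Doses spanned 10 points from 100 μM or 10 μM top, 0.1% DMSO; IC50 was derived from percent of control.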

[2] = biological target: Beta Secretase enzyme (BACE1) (Homo sapiens, UniProt P56817); experiment: In vitro enzymatic BACE FRET assay; format: biochemical; conditions: read-out: BACE1 FRET assay IC50
In short: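 Readout: dequenched fluorescence (ex 488 nm/[…]) after neutralizing with Tris buffer. Reactions, begun by adding 50 nM quenched peptide substrate spanning the BACE cleavage site, were incubated one hour at pH 4.2 in 0.05 M acetate with 100 uM genapol and 10% final DMSO.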

[3] = biological target: T1, Cathepsin D (Cat D) (Homo sapiens, UniProt P07339); experiment: In vitro enzymatic Cathepsin D (Cat D) FRET assay; format: biochemical; conditions: read-out: CatD IC50
T1 construct: Recombinant Cat D was expressed in CHO cells; made in house; host or cells: CHO cells
In short: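 FRET read-out: a fluorophore/quencher-labelled peptide substrate is cleaved by 9 nM Cat D (recombinant, CHO-expressed) following a one-hour preincubation with inhibitor dilutions in DMSO. Tris buffer added to neutralize pH ends the reaction before fluorescence measurement.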

Beta Secretase enzyme (BACE1), sequence (P56817 46-501): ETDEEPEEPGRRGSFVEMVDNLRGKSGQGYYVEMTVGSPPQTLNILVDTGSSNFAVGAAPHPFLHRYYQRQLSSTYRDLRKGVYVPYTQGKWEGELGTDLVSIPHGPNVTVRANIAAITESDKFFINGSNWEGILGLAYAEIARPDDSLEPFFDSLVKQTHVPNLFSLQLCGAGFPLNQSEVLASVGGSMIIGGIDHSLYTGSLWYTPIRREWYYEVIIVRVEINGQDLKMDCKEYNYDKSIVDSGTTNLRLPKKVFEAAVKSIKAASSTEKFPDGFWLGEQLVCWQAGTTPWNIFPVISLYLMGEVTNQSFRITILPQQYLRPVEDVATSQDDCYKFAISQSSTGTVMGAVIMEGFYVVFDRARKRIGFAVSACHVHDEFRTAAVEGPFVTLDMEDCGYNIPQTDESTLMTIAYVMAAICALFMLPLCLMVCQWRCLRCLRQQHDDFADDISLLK
T1 sequence (P07339 65-412, species assumed): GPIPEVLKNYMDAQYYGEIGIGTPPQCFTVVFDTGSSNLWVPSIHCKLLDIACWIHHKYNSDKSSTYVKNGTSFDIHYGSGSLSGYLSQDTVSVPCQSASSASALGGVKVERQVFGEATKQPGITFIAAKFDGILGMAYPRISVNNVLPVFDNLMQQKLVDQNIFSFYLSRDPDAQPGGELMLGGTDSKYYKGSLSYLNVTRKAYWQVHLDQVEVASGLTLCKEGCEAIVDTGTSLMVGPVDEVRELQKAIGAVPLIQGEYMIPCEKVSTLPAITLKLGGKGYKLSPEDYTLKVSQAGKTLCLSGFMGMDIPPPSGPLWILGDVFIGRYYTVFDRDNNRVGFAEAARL

| SMILES | IC50 [1] | IC50 [2] | IC50 [3] |
| --- | --- | --- | --- |
| CC1(C)C(N)=N[C@](C)(c2cc(Nc3nccc4cc(Cl)cnc34)ccc2F)CS1(=O)=O [Example 45, N-(3-((3R)-5-amino-3,6,6-trimethyl-1,1-dioxido-3,6-dihydro-2H-1,4-thiazin-3-yl)-4-fluorophenyl)-3-chloro-1,7-naphthyridin-8-amine] | 7.5 nM | 0.59 nM | 90400 nM |
| COc1cnc2c(Nc3ccc(F)c([C@]4(C)CS(=O)(=O)C(C)(C)C(N)=N4)c3)nccc2c1 [Example 46, N-(3-((3R)-5-amino-3,6,6-trimethyl-1,1-dioxido-3,6-dihydro-2H-1,4-thiazin-3-yl)-4-fluorophenyl)-3-methoxy-1,7-naphthyridin-8-amine] | 4 nM | 5.4 nM | 397000 nM |
| COc1cnc2c(Nc3ccc(F)c([C@]4(C)CS(=O)(=O)C(C)(C)C(N)=N4)c3)nccc2n1 [Example 47, N-(3-((3R)-5-amino-3,6,6-trimethyl-1,1-dioxido-3,6-dihydro-2H-1,4-thiazin-3-yl)-4-fluorophenyl)-2-methoxypyrido[3,4-b]pyrazin-5-amine] | 5.6 nM | 2.9 nM | > 400000 nM |
| CC1(C)C(N)=N[C@](C)(c2cc(Nc3nccc4cc(C#N)cnc34)ccc2F)CS1(=O)=O [Example 48, 8-((3-((3R)-5-amino-3,6,6-trimethyl-1,1-dioxido-3,6-dihydro-2H-1,4-thiazin-3-yl)-4-fluorophenyl)amino)-1,7-naphthyridine-3-carbonitrile] | 1.9 nM | 0.54 nM | 66700 nM |
| CC1(C)C(N)=N[C@](C)(c2cc(Nc3ncc(F)c4cc(Cl)cnc34)ccc2F)CS1(=O)=O [Example 49, N-(3-((3R)-5-amino-3,6,6-trimethyl-1,1-dioxido-3,6-dihydro-2H-1,4-thiazin-3-yl)-4-fluorophenyl)-3-chloro-5-fluoro-1,7-naphthyridin-8-amine] | 15.1 nM | 0.56 nM | 27100 nM |
| COc1cnc2c(Nc3ccc(F)c([C@]4(C)CS(=O)(=O)C(C)(C)C(N)=N4)c3)ncc(F)c2c1 [Example 50, N-(3-((3R)-5-amino-3,6,6-trimethyl-1,1-dioxido-3,6-dihydro-2H-1,4-thiazin-3-yl)-4-fluorophenyl)-5-fluoro-3-methoxy-1,7-naphthyridin-8-amine] | 5.3 nM | 2 nM | 73300 nM |
| COc1cnc2c(Nc3ccc(F)c([C@]4(C)CS(=O)(=O)C(C)(C)C(N)=N4)c3)ncnc2c1 [Example 51, N-(3-((3R)-5-amino-3,6,6-trimethyl-1,1-dioxido-3,6-dihydro-2H-1,4-thiazin-3-yl)-4-fluorophenyl)-7-methoxypyrido[3,2-d]pyrimidin-4-amine] | 3 nM | 2.7 nM | 81000 nM |
| CC1(C)C(N)=N[C@](C)(c2cc(Nc3ncnc4cc(Cl)cnc34)ccc2F)CS1(=O)=O [Example 52, N-(3-((3R)-5-amino-3,6,6-trimethyl-1,1-dioxido-3,6-dihydro-2H-1,4-thiazin-3-yl)-4-fluorophenyl)-7-chloropyrido[3,2-d]pyrimidin-4-amine] | 2.3 nM | 2 nM | 36000 nM |
| COc1cc(F)c2c(Nc3ccc(F)c([C@]4(C)CS(=O)(=O)C(C)(C)C(N)=N4)c3)ncnc2c1 [Example 53, N-(3-((3R)-5-amino-3,6,6-trimethyl-1,1-dioxido-3,6-dihydro-2H-1,4-thiazin-3-yl)-4-fluorophenyl)-5-fluoro-7-methoxy-4-quinazolinamine] | 399 nM | 739 nM | 320000 nM |
| Cc1nc2c(Nc3ccc(F)c([C@]4(C)CS(=O)(=O)C(C)(C)C(N)=N4)c3)nccc2s1 [Example 54, N-(3-((3R)-5-amino-3,6,6-trimethyl-1,1-dioxido-3,6-dihydro-2H-1,4-thiazin-3-yl)-4-fluorophenyl)-2-methyl[1,3]thiazolo[4,5-c]pyridin-4-amine] | 137 nM | 17.2 nM | > 400000 nM |
| CC1(C)C(N)=N[C@](C)(c2cc(Nc3nccc4nc(C(F)(F)F)cnc34)ccc2F)CS1(=O)=O [Example 55, N-(3-((3R)-5-amino-3,6,6-trimethyl-1,1-dioxido-3,6-dihydro-2H-1,4-thiazin-3-yl)-4-fluorophenyl)-2-(trifluoromethyl)pyrido[3,4-b]pyrazin-5-amine] | 34.6 nM | 5.2 nM | > 133000 nM |
| COc1cnc2c(Nc3ccc(F)c([C@]4(C)CS(=O)(=O)CC(N)=N4)c3)nccc2c1 [Example 56, N-(3-((3R)-5-amino-3-methyl-1,1-dioxido-3,6-dihydro-2H-1,4-thiazin-3-yl)-4-fluorophenyl)-3-methoxy-1,7-naphthyridin-8-amine] | 27.1 nM | 62.7 nM | 69800 nM |
| C[C@@]1(c2cc(Nc3nccc4cc(Cl)cnc34)ccc2F)CS(=O)(=O)CC(N)=N1 [Example 57, N-(3-((3R)-5-amino-3-methyl-1,1-dioxido-3,6-dihydro-2H-1,4-thiazin-3-yl)-4-fluorophenyl)-3-chloro-1,7-naphthyridin-8-amine] | 19 nM | 4.3 nM | 134000 nM |
| Cc1nc2c(Nc3ccc(F)c([C@]4(C)CS(=O)(=O)CC(N)=N4)c3)nccc2s1 [Example 58, N-(3-((3R)-5-amino-3-methyl-1,1-dioxido-3,6-dihydro-2H-1,4-thiazin-3-yl)-4-fluorophenyl)-2-methyl[1,3]thiazolo[4,5-c]pyridin-4-amine] | 292 nM | 190 nM | 304000 nM |
| COc1cnc2c(Nc3ccc(F)c([C@]4(C)CS(=O)(=O)[C@@](C)(F)C(N)=N4)c3)nccc2n1 [Example 59, N-(3-((3R,6R)-5-amino-6-fluoro-3,6-dimethyl-1,1-dioxido-3,6-dihydro-2H-1,4-thiazin-3-yl)-4-fluorophenyl)-2-methoxypyrido[3,4-b]pyrazin-5-amine] | 178 nM | 3.3 nM | 388000 nM |
| C[C@]1(F)C(N)=N[C@](C)(c2cc(Nc3nccc4cc(C#N)cnc34)ccc2F)CS1(=O)=O [Example 60, 8-((3-((3R,6R)-5-amino-6-fluoro-3,6-dimethyl-1,1-dioxido-3,6-dihydro-2H-1,4-thiazin-3-yl)-4-fluorophenyl)amino)-1,7-naphthyridine-3-carbonitrile] | 80.8 nM | < 2 nM | 99900 nM |
| COc1cnc2c(Nc3ccc(F)c(C4(CF)CS(=O)(=O)C(C)(C)C(N)=N4)c3)nccc2c1 (stereo not drawn) [Example 61, N-(3-(5-amino-3-(fluoromethyl)-6,6-dimethyl-1,1-dioxido-3,6-dihydro-2H-1,4-thiazin-3-yl)-4-fluorophenyl)-3-methoxy-1,7-naphthyridin-8-amine] | 31.7 nM | 6.5 nM | > 400000 nM |
| COc1cnc2c(Nc3ccc(F)c(C4(C(F)F)CS(=O)(=O)C(C)(C)C(N)=N4)c3)nccc2c1 (stereo not drawn) [Example 62, N-(3-(5-amino-3-(difluoromethyl)-6,6-dimethyl-1,1-dioxido-3,6-dihydro-2H-1,4-thiazin-3-yl)-4-fluorophenyl)-3-methoxy-1,7-naphthyridin-8-amine] | 1820 nM | 241 nM | > 400000 nM |
| COc1cnc2c(Nc3ccc(F)c([C@@]4(C(F)(F)F)CS(=O)(=O)C(C)(C)C(N)=N4)c3)nccc2c1 [Example 64, N-(3-((3R)-5-amino-6,6-dimethyl-1,1-dioxido-3-(trifluoromethyl)-3,6-dihydro-2H-1,4-thiazin-3-yl)-4-fluorophenyl)-3-methoxy-1,7-naphthyridin-8-amine] | > 10000 nM | 8690 nM | > 400000 nM |
| COc1cnc2c(Nc3ccc(F)c([C@]4(C(F)F)CS(=O)(=O)C(C)(C)C(N)=N4)c3)nccc2c1 [Example 67, (S)-5-Amino-3-(difluoromethyl)-3-(2-fluoro-5-((3-methoxy-1,7-naphthyridin-8-yl)amino)phenyl)-6,6-dimethyl-3,6-dihydro-2H-1,4-thiazine 1,1-dioxide] | 980 nM | 68 nM | > 400000 nM |
| CC1(C)C(N)=N[C@](C)(c2cc(Nc3nccc4cc(Cl)cnc34)cc(F)c2F)CS1(=O)=O [Example 69, (R)-5-Amino-3-(5-((3-chloro-1,7-naphthyridin-8-yl)amino)-2,3-difluorophenyl)-3,6,6-trimethyl-3,6-dihydro-2H-1,4-thiazine 1,1-dioxide] | 23.1 nM | 0.4 nM | 8560 nM |
| CC1(C)C(N)=N[C@](C)(c2cc(Nc3nccc4nc(O)cnc34)cc(F)c2F)CS1(=O)=O [Example 71, (R)-5-Amino-3-(2,3-difluoro-5-((2-hydroxypyrido[3,4-b]pyrazin-5-yl)amino)phenyl)-3,6,6-trimethyl-3,6-dihydro-2H-1,4-thiazine 1,1-dioxide] | 47.4 nM | 3.7 nM | 45200 nM |
| CC1(C)C(N)=N[C@@](C)(c2cc(Nc3nccc4nc(O)cnc34)cc(F)c2F)CS1(=O)=O [Example 72, (S)-5-Amino-3-(2,3-difluoro-5-((2-hydroxypyrido[3,4-b]pyrazin-5-yl)amino)phenyl)-3,6,6-trimethyl-3,6-dihydro-2H-1,4-thiazine 1,1-dioxide] | 5350 nM | 505 nM | 175000 nM |
